# Results from patent US8586609B2, “Aryl-substituted polycyclic amines, method for the production thereof, and use thereof as a medicament” (Sanofi-Aventis Deutschland GmbH, priority 2004, dated 2013).
# Test system: female NMRI mice
# Assay: Anorectic effect: reduction in cumulative milk consumption of treated compared with control animals
# Assay type: in vivo
# Settings: oral dose 30 mg/kg by gavage; female NMRI mice after withdrawal of feed for 17 hours; condensed milk consumption determined every half hour for 7 hours
# Experimental: The anorectic effect was tested on female NMRI mice. After withdrawal of feed for 17 hours, the test product was administered by gavage. The animals were housed singly with free access to drinking water and were offered condensed milk 30 minutes after administration of the product. The condensed milk consumption was determined every half hour for 7 hours, and the general wellbeing of the animals was observed. The measured milk consumption was compared with the vehicle-treated control animals.
compound,measurement,value
"CN1C[C@H]2CCN(c3ccc(NC(=O)N4CCC(c5ccc(Cl)cc5)CC4)cc3)[C@H]2C1 (stereo in doubt) [Example 9, 4-(4-Chlorophenyl)piperidine-1-carboxylic acid [4-(5-methylhexahydropyrrolo[3,4-b]pyrrol-1-yl)phenyl]amide]",Reduction in cumulative milk consumption as % of the control,82 % of the control
